# Data as given in patent publication EP0079141A1, “Aminoresorcinol derivatives” (ONO PHARMACEUTICAL CO., LTD., priority 1981, dated 1983).
# Counter-ions that a name gives are not always drawn.
# Columns and labels:
# 5-lipoxygenase [1] = target: T1, 5-lipoxygenase (Cavia porcellus, UniProt A0A286X958); assay: Screening assay using polymorphonuclear leukocytes: production of 5-HETE from [14C] arachidonic acid; format: cell-based; settings: intact polymorphonuclear leukocytes from guinea pig, 5 min preincubation and 5 min incubation at 37°C, read-out: concentration for 50% inhibition on 5-lipoxygenase
# T1 sequence (A0A286X958 1-674): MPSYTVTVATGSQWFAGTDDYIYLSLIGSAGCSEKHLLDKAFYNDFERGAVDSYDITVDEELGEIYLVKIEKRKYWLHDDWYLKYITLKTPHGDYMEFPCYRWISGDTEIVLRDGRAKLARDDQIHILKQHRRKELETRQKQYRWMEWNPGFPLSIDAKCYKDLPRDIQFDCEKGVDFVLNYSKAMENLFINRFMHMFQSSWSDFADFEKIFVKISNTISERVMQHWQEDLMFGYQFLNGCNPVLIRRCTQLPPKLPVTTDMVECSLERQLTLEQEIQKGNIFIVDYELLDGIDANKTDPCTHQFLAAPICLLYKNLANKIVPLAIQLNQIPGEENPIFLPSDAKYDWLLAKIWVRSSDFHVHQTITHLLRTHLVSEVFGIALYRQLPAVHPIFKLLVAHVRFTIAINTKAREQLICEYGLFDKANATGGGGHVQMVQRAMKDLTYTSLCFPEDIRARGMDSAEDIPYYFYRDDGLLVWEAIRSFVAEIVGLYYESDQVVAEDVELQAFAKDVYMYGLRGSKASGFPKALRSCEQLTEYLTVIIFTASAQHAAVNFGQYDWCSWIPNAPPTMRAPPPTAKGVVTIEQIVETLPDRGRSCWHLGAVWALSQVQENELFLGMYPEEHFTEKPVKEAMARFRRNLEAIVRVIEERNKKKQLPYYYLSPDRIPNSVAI
# Description: The experiments for screening using polymorphonuclear leukocytes were carried out as follows: The reaction mixture (0.1 ml) containing 5 µmole of potassium phosphate at pE 7.4, 0.1 µmole of calcium chloride, polymorphonuclear leukocytes prepared from guinea pigs (4 x 10^7 cells) and test compound, was preincubated for 5 minutes at 37°C. The reaction was started by the addition of [^14C) arachidonic acid (2.2 x 10^5 dpm, 1.8 nmole), followed by the incubation at 37°C for 5 minutes. The reaction was terminated by the addition of 0.3 ml of a mixture of ether/methanol/lM citric acid (30/4/1). The organic phase (20 µl) was applied to silica gel plate. Thin layer chromatography was performed to separate each product with solvent system of ether/petroleum ether/acetic acid (85/15/0.1).
# Activity of 5-lipoxygenase and cyclooxygenase were calculated from the measurements of the production of 5-HETE, and 12L-hydroxy-5,8,lC-heptatrienoic acid (i.e. HHT) or thromboxane B2 (i.e. TXB2), respectively [it has been known that HHT and TXB2 are the last products of the system concerning cyclooxygenase in the arachidonate cascade]. The concentrations for 50% inhibitions on 5-lipoxygenase and on cyclooxygenase were evaluated by using the concentration of compounds of the present invention required 50% inhibitions on the productions of 5-HETE, and HHT or TXB2, respectively.
# 5-lipoxygenase [2] = target: T1, 5-lipoxygenase; assay: Enzyme assay using the 105,000 x g supernate of sonicated polymorphonuclear leukocytes: production of 5-HETE, 5,12-diHETE and LTB; format: biochemical; settings: supernate enzyme of guinea pig polymorphonuclear leukocytes, 5 min at 30°C, 1 mM calcium chloride, read-out: concentration for a 50% inhibition of 5-lipoxygenase, i.e. IC50
# Description: Further, in another assay system, the inhibitory activity of compounds of the present invention on 5-lipoxygenase only was also evaluated by using an enzyme prepared from polymorphonuclear leukocytes of guinea pig. Guinea pig was treated by casein and harvested polymcrphonuclear leukocytes from cavity were sonicated, followed by the centrifugation at 105,000 x g. The supernate was used as an enzyme throughout this work. The supernate (100 - 500 µg of protein) was incubated for 5 minutes at 30°C with [^14C] arachidonic acid and 1 mM calcium chloride in the presence or in the absence of test compound. The reaction was terminated by the addition of ether.
Compound,IC50 (5-lipoxygenase [1]) [nM],IC50 (5-lipoxygenase [2]) [nM]
Nc1c(O)ccc(C(=O)c2ccccc2)c1O [2-Amino-6-benzoylresorcinol hydrochloride],300,400
Nc1c(O)c(Cl)cc(C(=O)c2ccc(Cl)cc2)c1O [2-Amino-4-chloro-6-(4-chlorobenzoyl)resorcinol hydrochloride],–,2630
COC(c1ccc(Cl)cc1)c1cc(Cl)c(O)c(N)c1O (centres unmarked) [2-Amino-4-chloro-6-(a-methoxy-4-chlorobenzyl)resorcinol hydrochloride],–,2000
Nc1cc(C(=O)c2ccccc2)c(O)cc1O [4-Amino-6-benzoylresorcinol hydrochloride],–,6670
